In US7429673B2, “TRPV1 agonists, formulations containing them and uses thereof” (priority 2004, dated 2008):
Like-named read-outs stand apart in the source and are kept apart here.

How the values were obtained:
human TRPV1 = target: T1, human TRPV1 (Homo sapiens, UniProt Q8NER1); assay: intracellular calcium in HEK-293 cells overexpressing human TRPV1; type: cell-based; details: 4 μM ionomycin as maximum reference
T1 construct: expressed in transfected cells; host or cells: HEK-293

Sprague Dawley rats = assay: in vivo test of induced urinary incontinence (partial urethral obstruction); parameters: species or system rat; details: operated rats; for N^o of minctions per hour: 8 weeks after urethral obstruction, instilled in the bladder in ethanol at 50 nM for 30 min; for number of minctions per hour, result in words: instilled in the bladder at 50 nM for 30 min
Protocol: The activity of the compound of example 2 was also evaluated in rats through the in vivo test of induced urinary incontinence.
Sprague Dawley rats (250±10 g) were anaesthetized with chloral hydrate. The urinary bladder was opened through an incision along the abdomen median line, and the adipose tissue surrounding the urethra and ureters was removed. The proximal urethra was then tied up with non-absorbable surgery thread to create partial urethral obstruction.
On the treatment day, the compound of example 2, the compound prepared according to Appendino et al. and resiniferotoxin as the reference standard were solubilised in ethanol and instilled in the bladder at the concentration of 50 nM. The instillation lasted 30 min: during this period the infusion pump for the saline was turned off. After incubation, the bladder was emptied of any medicament solution, then the infusion pump was turned on again.

[1] = in DMSO, read-out: pEC50 DMSO (pEC50 values for TPVR1) (converted)
[2] = in methanol, read-out: pEC50 methanol (pEC50 values for TPVR1) (converted)

T1 sequence (Q8NER1 whole entry): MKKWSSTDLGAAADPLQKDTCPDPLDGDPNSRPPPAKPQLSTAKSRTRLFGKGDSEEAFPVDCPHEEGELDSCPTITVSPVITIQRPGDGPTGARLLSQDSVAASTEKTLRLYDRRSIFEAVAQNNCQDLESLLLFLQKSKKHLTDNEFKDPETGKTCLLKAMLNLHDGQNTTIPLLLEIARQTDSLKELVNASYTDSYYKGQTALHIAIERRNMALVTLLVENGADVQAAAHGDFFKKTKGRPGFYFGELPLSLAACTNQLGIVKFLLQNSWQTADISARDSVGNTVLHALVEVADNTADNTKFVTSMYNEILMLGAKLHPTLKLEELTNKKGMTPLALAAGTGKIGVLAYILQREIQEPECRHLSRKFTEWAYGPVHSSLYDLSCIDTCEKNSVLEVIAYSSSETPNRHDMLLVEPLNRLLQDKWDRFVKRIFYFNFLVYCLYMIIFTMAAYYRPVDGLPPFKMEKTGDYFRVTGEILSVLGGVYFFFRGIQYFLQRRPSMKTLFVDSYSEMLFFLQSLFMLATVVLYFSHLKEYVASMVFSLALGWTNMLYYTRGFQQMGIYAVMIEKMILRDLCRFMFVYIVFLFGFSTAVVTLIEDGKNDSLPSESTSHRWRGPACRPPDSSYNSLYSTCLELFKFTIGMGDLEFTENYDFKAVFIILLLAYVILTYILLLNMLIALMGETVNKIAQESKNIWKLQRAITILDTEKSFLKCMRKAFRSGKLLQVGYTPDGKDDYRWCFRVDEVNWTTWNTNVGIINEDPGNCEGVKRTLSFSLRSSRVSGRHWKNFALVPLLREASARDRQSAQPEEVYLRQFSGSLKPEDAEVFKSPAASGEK

SMILES | EC50 (human TRPV1; [1]) | N^o of minctions per hour (Sprague Dawley rats) | number of minctions per hour, result in words (Sprague Dawley rats) | EC50 (human TRPV1; [2]) | also measured
CCCCCC[C@H](C/C=C\CCCCCCCC(=O)NCc1ccc(O)c(OC)c1)OC(C)=O | 0.501 nM |  |  |  | pEC50 methanol (pEC50 values for TPVR1) (human TRPV1; in methanol): 9.40 ± 0.18
CCCCCC[C@H](C/C=C\CCCCCCCC(=O)NCc1ccc(O)c(OC)c1)OC(=O)Cc1ccccc1 [Compound of example 2, 12-Phenylacetyl Rinvanil] |  | 19 ± 2 per hour | remained similar to that of non-operated animals |  | EC50 (human TRPV1; pEC50 DMSO (pEC50 values for TPVR1), in DMSO): 0.102 nM; EC50 (human TRPV1; pEC50 methanol (pEC50 values for TPVR1), in methanol): 0.0661 nM
CCCCCC[C@H](C/C=C\CCCCCCCC(=O)NCc1ccc(O)c(OC)c1)OC(=O)c1ccccc1 [Compound of example 9, 12-Benzoyl Rinvanil] | 0.129 nM |  |  | 0.288 nM | 
CCCCCC[C@H](CC1CC1CCCCCCCC(=O)NCc1ccc(O)c(OC)c1)OC(=O)Cc1ccccc1 (some centres unmarked) [Compound of example 12, 9,10-Methylen-12-Phenylacetyl Rinvanil I] | 0.12 nM |  |  | 0.158 nM | 
CCCCCC[C@H](CC1OC1CCCCCCCC(=O)NCc1ccc(O)c(OC)c1)OC(=O)Cc1ccccc1 (some centres unmarked) [Compound of example 15, 9,10-Epoxy-12-Phenylacetyl Rinvanil] | 5.37 nM |  |  | 4.07 nM | 
C=C(C)[C@]12C[C@@H](C)[C@@]34O[C@](Cc5ccccc5)(O[C@@H]1[C@@H]3C=C(COC(=O)Cc1ccc(O)c(OC)c1)C[C@]1(O)C(=O)C(C)=C[C@@H]41)O2 [Resiniferotoxin, resiniferotoxin, reference compound] |  | 17 ± 2 per hour | remained similar to that of non-operated animals |  | 
